Data on 10 molecules can be found in US20110009379A1, “INDOLINONE COMPOUND” (ASTELLAS PHARMA INC., priority 2008, published 2011).

Read-outs that look alike come from different tables or passages of the source. Some results are limits rather than exact numbers.

Data set [1] addresses T1, human TRPA1 (Homo sapiens, UniProt O75762, K186N/R3C/R58T).
T1 construct: expressed in transfected cells; pcDNA3.1(+) vector)
In words: Measurement of TRPA1 activation activity (intracellular calcium, FLIPR, HEK293 cells stably expressing human TRPA1). To be noted: change of intracellular calcium concentration. The class given is cell-based. How it is done: 10 ng of Human brain mRNA (Clontech Co.) was treated with DNase, and then was reverse transcribed using kit for reverse transcription-polymerase chain reaction (RT-PCR) (SUPERSCRIPT First-Strand Synthesis System for RT-PCR; Invitrogen Co.) to synthesize the first strand cDNA. PCR using a hot start method was performed using the first strand cDNA as a template and Taq DNA polymerase (LA Taq DNA polymerase; TAKARA SHUZO). The PCR was performed using oligonucleotides consisting of the nucleotide sequences, represented by sequence number 2 as a sense primer and sequence number 3 as an antisense primer, in which firstly, heat denaturation was performed at 98° C. (1 minute), and then a cycle of 98° C. (15 seconds)/56° C. (30 seconds)/72° C. (5 minutes) was repeated 35 times. As a result, a DNA fragment of about 3.3 kbp was amplified.
The DNA fragment was cloned to pCR-TOPO vector using a cloning kit (TOPO XL PCR Cloning Kit; Invitrogen). The obtained plasmid DNA was digested with restriction enzymes KpnI and HindIII, and then was cloned using plasmid pcDNA 3.1(+)(Invitrogen). In this connection, the plasmid pcDNA 3.1(+) has a promoter sequence derived from cytemegalovirus, and can be used in order to express a protein in animal cells.
The nucleotide sequences of the obtained clones were analyzed using DNA sequencer (ABI3700 DNA Sequencer; Applied Biosystems) by dideoxyterminator method, and the nucleotide sequence represented by sequence number 1 was obtained. Furthermore, when these sequences were translated to amino acid sequences, the amino acid sequence represented by sequence number 1 was obtained.
After constructing the expression vector of the human TRPA1 gene, selection by G418 was performed from the HEK293 cells which temporarily expressed TRPA1 by transfection operation to obtain cells stably expressing TRPA1. The above operation was performed according to known methods (experimental medicine supplementary volume, “Cultivation Cell Experimental Methods for Molecular Biology Study” published by Toshio Kuroki, Namho Hue and Kazuhiro Chida, 1995, Yodosha).
In order to measure the change of the intracellular calcium concentration in the cells stably expressing the human TRPA1, the change of the intracellular calcium concentration when a compound to be tested was added was measured using FLIPR (Molecular Device).
In order to measure the change of the intracellular calcium concentration with FLIPR, the following pretreatment was performed. First of all, assay buffer was prepared which was for adding fluorescent pigment Fluo4-AM (DOJIN) to the cells or washing the cells just before performing FLIPR assay. To a solution (hereinafter, HBSS/HEPES solution) where 20 mL of 1M HEPES (pH 7.4; Invitrogen) was added to 1000 mL of a physiological saline buffer (Hank's Balanced Salt Solution; HBSS) (Invitrogen), was added 10 mL of a solution where 710 mg of probenecid (Sigma) was dissolved into 5 mL of 1M aqueous NaOH solution and 5 mL of HBSS/HEPES solution was further added and mixed, and the assay buffer was thus prepared. Then, 50 μg of Fluo4-AM was dissolved into 22 μL of DMSO (DOJIN), the same amount of 20% pluronic acid (Molecular Probes) was added thereto and mixed, and the mixture was added to the 10.6 mL of the assay buffer where 105 μL of fetal bovine serum was added, to prepare a fluorescent pigment solution. The medium of the cells stably expressing TRPA1 was removed, 100 μL per well of the fluorescent pigment solution was dispensed immediately, followed by cultivation in a CO2 cultivator for 1 hour, and the fluorescent pigment was soaked in the cells. The cells after cultivation were washed using the assay buffer, followed by being set in FLIPR. Furthermore, a test sample, which was added to the cells stably expressing TRPA1, was prepared by using the assay buffer, and at the same time, was set in FLIPR. […]

The test system of data set [2] is gastric emptying of rats. Briefly: Activity to gastric emptying of TRPA1 agonist (phenol red, rats). Type of data set: in vivo. Conditions: Rattus norvegicus, read-out: ED50 (amount which suppresses 50% of gastric emptying). The text has this: When EC cell is stimulated by content of a gastrointestinal tract, 5-HT is secreted. The secreted 5-HT promotes the secretion or motility through a 5-HT receptor present in intestinal nerve plexus or gastrointestinal smooth muscle. The secreted 5-HT is instantly taken into a cell by its specific transporter, and is metabolized by […]. Thus, while it is considerably difficult to directly measure the secreted 5-HT concentration, it has been known that gastric emptying is delayed as a physiological activity through 5-HT in rodents. In order to verify in vivo activity through 5-HT of the compound to be tested, activity to gastric emptying of rats by various TRPA1 agonists was studied.
In the experiment, male wistar rats (body weight 290 to 360 g) were used. The animals were purchased from Japan SLC (Shizuoka). The animals were allowed to drink water freely under a constitutive environment.
5 minutes after the medicine was orally administered, 0.05% phenol red solution (1.5 mL) was orally administered. After 15 minutes, rats were put painlessly to death by cervical vertebral dislocation, their stomachs were exenterated, and phenol red was eluted with 0.1M aqueous NaOH solution (5 mL) from the exenterated stomachs. 20% aqueous trichloroacetic acid solution (0.1 mL) was added to the NaOH solution (0.5 mL), followed by stirring and centrifugation at 15,000 rpm, at 4° C., for 10 minutes. 0.5M aqueous NaOH solution (0.2 mL) was added to the supernatant (0.05 mL), followed by stirring, and absorbance at 560 nm was measured using an absorption spectrometer (spectrometer spectramax M2; Molecular Devices, CA, USA).
A gastric emptying was calculated by the following calculating formula.
Gastric emptying (%)=100−(A/B)×100
A: amount of phenol red remaining in stomach
B: amount of phenol red remaining in stomach just after administering phenol red
ED50 values (amount of the compound to be tested which suppresses 50% of gastric emptying, with respect to the control animals without administering the compound to be tested) of some of the compounds of the formula (I) are shown in Table 2. In this connection, comparative compound 1 and comparative compound 2 are (3E)-1-methyl-3-(2-oxopropyridene)-1,3-dihydro-2H-indol-2-one, and (3E)-3-(2-oxopropyridene)-1-prop-2-in-1-yl-1,3-dihydro-2H-indol-2-one described in Non Patent Document 4 above, and has the following chemical structures, respectively.

Data set [3] addresses Cytochrome P450(2D6) (Homo sapiens, UniProt P10635). Briefly: Cytochrome P450(2D6) enzyme inhibition test. Type of data set: in vitro ADME. To be noted: CYP2D6, fluorescent substrate 1.5 μmol/L, 37° C., 20 minutes. Here is the method: The experiment was performed in accordance with the method of Crespi et al. (Analytical Biochemistry, 248, 188-190, 1997).
As a substrate, 3-[2-(N,N-diethyl-N-methylamino)ethyl]-7-methoxy-4-methyl coumarine (1.5 μmol/L) a compound to be tested (3.1×10^−7 to 2×10^−5 M) and an enzyme (2.5×10^−8 M) were incubated at 37° C. for 20 minutes in total of […] of 100 mM phosphorous buffer (pH=7.4) including 8.2 mM NADP+, 0.41 mM glucose-6-phosphate, 0.41 mM MgCl2 and 0.4 Units/mL glucose-6-phosphate dehydrogenase, using 96 well plates. Then, 0.5 M aqueous 2-amino-2-hydroxymethyl-1,3-propandiol solution containing 80% acetonitrile was added to stop the reaction, fluorescence intensity (excitation wavelength; 390 nm, fluorescent wavelength; 460 nm) was measured with a fluorescent plate reader. An inhibition ratio was calculated with the following formula, and the test compound concentration when the inhibition ratio is 50% (IC50) was obtained.
C1: fluorescence intensity in the presence of the test compound and enzyme at know concentrations, and the substrate
C0: fluorescence intensity in the presence of the enzyme and substrate, without the test compound
B1: fluorescence intensity of blank well

Data set [4] deals with RIN14B cells. Briefly: Measurement of 5-HT secretion from RIN14B. Type of data set: cell-based. Conditions: 20 minutes at 37° C., relative to 300 μM allyl isothiocyanate = 100%, HBSS only = 0%. How it is done:
In order to investigate whether TRPA1 is related to 5-HT release, 5-HT secretion promotion from RIN14B by a compound to be tested was measured.
The RIN14B cells cultivated in a petri dish were scraped using Phosphate buffered saline (PBS) containing 1 mM EDTA, distributed into 24 well plates, and cultivated for 2 days. As a medium, a medium in which 10% fetal bovine serum (ICN), 100 U/mL penicillin, and 100 μg/mL streptomycin was added to RPMI1640 (Invitrogen), was used. The cells were washed once with HBSS (Invitrogen) and added with 0.1% BSA and 10 μM fluoxetine (TOCRIS Co.), followed by dilution with the above HBSS, the prepared compound to be tested was added to RIN14B cells, followed by cultivation at 37° C., under 5% CO2 condition for 20 minutes. After cultivation, supernatant of cells was recovered, followed by freeze preservation. The content of 5-HT in the supernatant was measured by a commercial serotonin immunoassay kit (Beckman). 5-HT release promotion activation value (%) was evaluated as a relative value when the 5-HT release promotion value by 300 μM of allyl isothiocyanate was defined as 100%, and the 5-HT release promotion value by HBSS for dilution only was defined as 0%.

Data set [5] concerns delay of discharging time induced by loperamide in mice. In words: Loperamide induced constipation model (glass bead discharging time). The class given is in vivo. To be noted: Mus musculus, read-out: ED50 (amount which suppresses 50% of the delay of discharging time induced by loperamide). Here is the method:
It has been known that loperamide as a μ opioid receptor agonist causes convulsive contraction in intestinal tracts. Thus, a delay in the intestinal transport ability due to loperamide is thought as a constipation IBS model.
Mice (Slc:ddY, five-week old, male) fasted from the previous evening of the experiment. On the day of the experiment, the mice were acclimatized to cages for measurement for 1 hour or more, and 0.3 mg/kg of loperamide was administered subcutaneously. After 30 minutes, a compound to be tested was administered orally, ether anesthesia was applied to the mice immediately thereafter, glass beads having diameter of 3 mm were inserted to 2 cm from anus. The mice were returned to the cages for measurement, and the time from waking to discharging of the glass beads was measured. Furthermore, the compound to be tested was dissolved into 10% DMSO, 10% cremophor, and 80% distillated water.
As a result, it has been recognized that there was a delay in the beads discharging time of the loperamide administration group (vehicle group) in comparison with the loperamide non-administration group (control group).
ED50 values (amount of the compound to be tested which suppresses 50% of the delay of discharging time induced by loperamide) of some of the compounds of the formula (I) are shown in Table 3. In this connection, comparative compound 1 is the same compound as comparative compound 1 in Test Example 4.

Setting [6] is: male wistar rats, oral administration, versus control animals.
[7] abbreviates: mice (Slc:ddY, male), 0.3 mg/kg loperamide subcutaneously, compound orally.

Sequence of Cytochrome P450(2D6) (P10635 whole entry): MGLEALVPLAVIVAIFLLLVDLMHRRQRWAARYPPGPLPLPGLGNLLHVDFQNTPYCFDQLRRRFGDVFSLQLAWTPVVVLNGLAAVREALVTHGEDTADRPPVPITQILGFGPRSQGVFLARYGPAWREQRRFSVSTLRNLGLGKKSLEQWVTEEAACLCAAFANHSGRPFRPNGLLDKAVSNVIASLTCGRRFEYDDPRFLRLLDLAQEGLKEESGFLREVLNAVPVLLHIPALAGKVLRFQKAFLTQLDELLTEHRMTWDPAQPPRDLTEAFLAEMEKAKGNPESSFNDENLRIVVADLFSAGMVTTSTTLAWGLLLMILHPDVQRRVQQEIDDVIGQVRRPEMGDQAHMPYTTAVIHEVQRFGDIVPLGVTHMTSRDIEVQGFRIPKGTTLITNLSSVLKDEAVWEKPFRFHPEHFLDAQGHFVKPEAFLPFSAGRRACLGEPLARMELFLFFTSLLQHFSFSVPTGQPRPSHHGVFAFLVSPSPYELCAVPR
T1 sequence (O75762 whole entry R3C/R58T/K186N): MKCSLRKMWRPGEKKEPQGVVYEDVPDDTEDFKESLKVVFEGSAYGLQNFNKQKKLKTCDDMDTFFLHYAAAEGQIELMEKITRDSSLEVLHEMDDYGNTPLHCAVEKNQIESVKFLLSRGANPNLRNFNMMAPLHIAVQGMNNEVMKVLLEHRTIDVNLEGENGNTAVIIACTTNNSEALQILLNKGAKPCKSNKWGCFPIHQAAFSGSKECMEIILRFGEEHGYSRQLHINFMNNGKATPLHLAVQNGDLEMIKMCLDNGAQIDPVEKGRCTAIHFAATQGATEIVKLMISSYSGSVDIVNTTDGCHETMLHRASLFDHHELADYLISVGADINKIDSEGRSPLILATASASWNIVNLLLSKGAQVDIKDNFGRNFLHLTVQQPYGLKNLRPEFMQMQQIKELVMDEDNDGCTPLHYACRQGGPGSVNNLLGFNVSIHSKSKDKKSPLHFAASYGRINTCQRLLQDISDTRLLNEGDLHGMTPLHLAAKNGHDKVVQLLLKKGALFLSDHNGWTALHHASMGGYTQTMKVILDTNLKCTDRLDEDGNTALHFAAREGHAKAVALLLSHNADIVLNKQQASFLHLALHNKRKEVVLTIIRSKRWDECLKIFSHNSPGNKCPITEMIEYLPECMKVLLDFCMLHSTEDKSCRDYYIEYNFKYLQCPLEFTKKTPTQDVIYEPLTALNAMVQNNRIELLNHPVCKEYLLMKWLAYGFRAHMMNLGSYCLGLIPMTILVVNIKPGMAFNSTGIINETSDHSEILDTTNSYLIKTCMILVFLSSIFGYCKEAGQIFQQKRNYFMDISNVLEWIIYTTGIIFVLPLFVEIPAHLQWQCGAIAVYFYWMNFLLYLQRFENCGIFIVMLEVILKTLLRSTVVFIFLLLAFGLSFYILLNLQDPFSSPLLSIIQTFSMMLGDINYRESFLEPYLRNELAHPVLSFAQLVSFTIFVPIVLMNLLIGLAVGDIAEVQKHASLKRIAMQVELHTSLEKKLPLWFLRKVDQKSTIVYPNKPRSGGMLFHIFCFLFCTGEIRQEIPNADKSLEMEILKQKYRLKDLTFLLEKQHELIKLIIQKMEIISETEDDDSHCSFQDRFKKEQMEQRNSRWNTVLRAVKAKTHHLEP

`CCC(CC)CN1C(=O)/C(=C/C(=O)N2CCOCC2)c2cccc(F)c21` [Example 45, (3E)-1-(2-ethylbutyl)-7-fluoro-3-(2-morpholin-4-yl-2-oxoethylidene)-1,3-dihydro-2H-indol-2-one]: the melting point (usually the temperature of the solid-liquid transition) fell in the range of 102 to 104 °C. Besides, in data set [1], the EC50 (usually the midpoint of the concentration-response curve) came out at 1290 nM. Also, the ED50 (usually the dose at which the effect has come halfway, by size or by number of responders) in data set [2] (po) was found to be 0.57 mg/kg. Also, the IC50 (in general, the concentration that inhibits the measured activity by half) in data set [3] amounted to 18 µM.

Consider `O=C(O)/C=C1/C(=O)N(CC2CCC2)c2c(F)cccc21` [Example 32, (2E)-[1-(cyclobutylmethyl)-7-fluoro-2-oxo-1,2-dihydro-3H-indol-3-ylidene]acetic acid], for which the melting point was 166 to 168 °C. Moreover, the EC50 in data set [1] amounted to 1160 nM. Moreover, the ED50 in data set [2] (setting [6]) is 0.21 mg/kg. The molecule further displayed an IC50 in data set [3] of more than 50 µM.

In the case of `CC(C)CN1C(=O)/C(=C/C(=O)O)c2cc(F)ccc21` [Example 27], the EC50 in data set [1] came to 4630 nM. In data set [4], the “5-HT release promotion activation value” is on record as 40.0%.

As for `COC(=O)c1cccc(CN2C(=O)/C(=C/C(N)=O)c3ccccc32)c1` [Example 4, methyl 3-{[(3E)-3-(2-amino-2-oxoethylidene)-2-oxo-2,3-dihydro-1H-indol-1-yl]methyl}benzoate], in data set [1], the EC50 amounted to 1200 nM. Further, the “5-HT release promotion activation value” in data set [4] was found to be 144.6%.

Take `CC(C)CN1C(=O)/C(=C/C(=O)O)c2ccccc21` [Example 13]: the figures for the ED50 in data set [2] (setting [6]) and in data set [5] (setting [7]) were 0.98 mg/kg and 0.4 mg/kg, respectively.

For `O=C(O)/C=C1/C(=O)N(CC2CCC2)c2ccccc21` [Example 24], the values for the ED50 in data set [2] (po) and in data set [5] were 0.53 mg/kg and 0.27 mg/kg, respectively.

Regarding `CC(=O)/C=C1/C(=O)N(C)c2ccccc21` [comparative compound 1, (3E)-1-methyl-3-(2-oxopropyridene)-1,3-dihydro-2H-indol-2-one, reference compound], the ED50 was determined as 2.8 mg/kg in data set [2] (setting [6]) and 2.5 mg/kg in data set [5] (setting [7]).

On to `CC(C)CN1C(=O)/C(=C/C(=O)O)c2cccc(F)c21` [Example 1, (2E)-(7-fluoro-1-isobutyl-2-oxo-1,2-dihydro-3H-indol-3-ylidene)acetic acid], for which the EC50 in data set [1] was 4270 nM. Further, the ED50 in data set [2] (setting [6]) is 0.13 mg/kg. The IC50 in data set [3] is more than 20 µM.

`O=C(O)/C=C1/C(=O)N(Cc2ccccc2)c2ccc(F)cc21` [Example 17, (2E)-(1-benzyl-5-fluoro-2-oxo-1,2-dihydro-3H-indol-3-ylidene)acetic acid]: the melting point was 177 to 179 °C. Further, the EC50 in data set [1] turned out to be 4450 nM. In data set [2] (setting [6]), the ED50 worked out at 0.31 mg/kg. For the same molecule, the IC50 in data set [3] is more than 20 µM.

In turn, `CC(C)CN1C(=O)/C(=C/C(=O)O)c2cccc(Cl)c21` [Example 31, (2E)-(7-chloro-1-isobutyl-2-oxo-1,2-dihydro-3H-indol-3-ylidene)acetic acid] yielded a melting point of 142 to 144 °C. Moreover, the EC50 in data set [1] stood at 610 nM. Also, in data set [5] (setting [7]), the ED50 came out at 0.24 mg/kg.
